The test system of one experiment is B. subtilis ATCC 6633. The experiment is described as follows: Microdilution MIC/MMC with resazurin. The conditions noted are these: B. subtilis ATCC 6633, compounds 1–8; for MIC: Bacillus subtilis, ATCC6633, read-out: MIC. It counts as cell-based, Bacillus subtilis. As for the experimental part: (§1) The antimicrobial activity was evaluated against 15 microorganisms. This included 11 bacterial strains: four standard strains (Staphylococcus aureus ATCC 25923, Bacillus subtilis ATCC 6633, Bacillus pumilus NCTC 8241, and Escherichia coli ATCC 25922) and six clinical or environmental isolates (Staphylococcus aureus, Escherichia coli, Bacillus cereus, Proteus mirabilis, Salmonella enterica, and Klebsiella pneumoniae). One probiotic strain, Bifidobacterium animalis subsp. lactis was tested. In addition, four fungal strains, Candida albicans ATCC 10231, Trichoderma viride ATCC 13233, Aspergillus flavus ATCC 9170, and Fusarium solani ATCC 11712 were tested. The bacterial strains were kept in glycerol stock at −80 °C and the fungal strains in paraffin oil stock at 4 °C.
(§2) Bacterial and yeast suspensions were prepared using the direct colony method, as previously described by Andrews. The turbidity of the initial suspensions was adjusted to match the 0.5 McFarland standard using a densitometer (Biosan, Riga, Latvia), corresponding to approximately 10^8 colony-forming units (CFU)/mL for bacterial cells and 10^6 CFU/mL for yeast cells. Subsequently, 1:100 dilutions of the initial suspensions were prepared in sterile 0.85% saline. Fungal spore suspensions were obtained by gently harvesting spores from agar slopes containing mature mycelial growth. The collected spore suspensions were then diluted 1:1000 in sterile 0.85% saline prior to use.
(§3) Antimicrobial activity was evaluated by determining the minimum inhibitory concentration (MIC) and minimum microbicidal concentration (MMC) using the microdilution plate method with resazurin as an indicator [28]. In the 96-well plates, 100 μL of Mueller–Hinton broth (Torlak, Belgrade, Serbia) for bacterial testing and Sabouraud broth (Torlak, Belgrade, Serbia) for fungal testing were dispensed into each well. The compounds under investigation were initially dissolved in a 10% dimethyl sulfoxide (DMSO) solution, followed by dilution in sterile distilled water, resulting in a working compound solution containing 1% DMSO. A 100 μL aliquot of the stock solution of the tested compound was added to the first row, and twofold serial dilutions were then carried out using a multichannel pipette. The resulting concentration range was from 5 to 0.039 mg/mL. The inoculated microtiter plates were incubated at 37 °C for 24 h for bacteria, at 28 °C for 48 h for yeasts, and at 28 °C for 72 h for molds.
(§4) Each test also included growth control and sterility control. All tests were conducted in duplicate. MIC was defined as the lowest concentration of tested compounds that prevented resazurin color change from blue to pink. For molds, MIC values of the tested compound were determined as the lowest concentration that inhibited visible mycelia growth. MMC was determined by inoculation of the nutrient agar medium by plating […] of samples from wells, where no indicator color change was recorded. At the end of the incubation period, the lowest concentration with no growth (no colony) was defined as MMC.
(§5) Doxycycline, ampicillin and amphotericin B (- Sigma-Aldrich, St. Louis, MO, USA) and ketoconazole (Hemofarm A.D., Vršac, Serbia) were dissolved in a nutrient liquid medium. Doxycycline is a broad-spectrum antibiotic effective against both aerobic and anaerobic Gram-positive and Gram-negative bacteria. Ampicillin, a beta-lactam antibiotic, primarily targets Gram-positive bacteria but also some Gram-negative strains. Amphotericin B is an antifungal drug often used for serious systemic fungal infections and is one of the effective treatments for fungal infections caused by Aspergillus sp. Ketoconazole is an antifungal agent used to inhibit the growth of Candida species.
A general note: Dilution methods test growth across graded concentrations, often in twofold steps.

For a further experiment, the system named is B. cereus. As to the kind of experiment: Microdilution MIC/MMC with resazurin. It counts as cell-based, Bacillus cereus. The conditions noted are these: B. cereus, compounds 1–8; for MIC: Bacillus cereus, read-out: MIC. The protocol: as §1, §2, §3, §4, §5
Experiment [1] deals with B. animalis subsp. lactis. The experiment is described as follows: Microdilution MIC/MMC with resazurin. The following applies: B. animalis subsp. lactis, compounds 1–8; for MIC: Bifidobacterium animalis, read-out: MIC. It counts as cell-based, Bifidobacterium animalis subsp. lactis. As for the experimental part: as §1, §2, §3, §4, §5
The subject of another experiment is E. coli ATCC 25922. As to the kind of experiment: Microdilution MIC/MMC with resazurin. It counts as cell-based, Escherichia coli. The following applies: E. coli ATCC 25922, compounds 1–8; for MIC: Escherichia coli, ATCC25922, read-out: MIC. The protocol: as §1, §2, §3, §4, §5
The next experiment has as its system E. coli. The experiment is described as follows: Microdilution MIC/MMC with resazurin. It counts as cell-based, Escherichia coli. The conditions noted are these: E. coli isolate, compounds 1–8; for MIC: Escherichia coli, read-out: MIC. As for the experimental part: as §1, §2, §3, §4, §5
For another experiment, the system named is P. mirabilis. The experiment is described as follows: Microdilution MIC/MMC with resazurin. The following applies: P. mirabilis, compounds 1–8; for MIC: Proteus mirabilis, read-out: MIC. It counts as cell-based, Proteus mirabilis. As for the experimental part: as §1, §2, §3, §4, §5
Experiment [2] concerns the target T1, Type I-B soybean lipoxygenase (Glycine max, UniProt P08170).
T1 sequence (P08170 1-839): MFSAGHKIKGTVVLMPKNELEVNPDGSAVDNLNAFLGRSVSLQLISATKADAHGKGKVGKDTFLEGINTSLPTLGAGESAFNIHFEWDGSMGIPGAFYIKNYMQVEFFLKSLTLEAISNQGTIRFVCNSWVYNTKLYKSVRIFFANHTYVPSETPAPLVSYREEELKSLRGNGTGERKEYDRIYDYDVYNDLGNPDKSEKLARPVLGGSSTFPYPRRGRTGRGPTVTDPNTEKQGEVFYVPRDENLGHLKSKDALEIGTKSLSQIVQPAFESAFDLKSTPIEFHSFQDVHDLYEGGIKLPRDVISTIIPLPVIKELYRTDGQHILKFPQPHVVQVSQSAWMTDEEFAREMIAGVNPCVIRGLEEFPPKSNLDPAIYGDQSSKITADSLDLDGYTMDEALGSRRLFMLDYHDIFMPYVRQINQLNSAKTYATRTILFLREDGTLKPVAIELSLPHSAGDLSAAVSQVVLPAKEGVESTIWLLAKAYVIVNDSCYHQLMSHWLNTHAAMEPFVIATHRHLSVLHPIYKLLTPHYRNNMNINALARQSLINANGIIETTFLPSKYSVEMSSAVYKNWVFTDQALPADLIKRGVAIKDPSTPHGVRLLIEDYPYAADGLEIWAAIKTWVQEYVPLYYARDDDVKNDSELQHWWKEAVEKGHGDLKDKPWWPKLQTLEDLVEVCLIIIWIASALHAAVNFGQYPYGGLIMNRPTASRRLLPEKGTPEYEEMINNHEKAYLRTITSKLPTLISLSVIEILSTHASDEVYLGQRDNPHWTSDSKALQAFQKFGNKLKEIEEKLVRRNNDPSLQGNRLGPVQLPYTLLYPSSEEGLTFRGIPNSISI
As to the kind of experiment: LOX inhibition assay. It counts as biochemical. The conditions noted are these: mean ± SD; for inhibition at 100 µM: read-out: Percentage of LOX Inhibition. The protocol:
Type I-B soybean lipoxygenase is a commonly used enzyme for studying the anti-inflammatory properties of various compounds [19]. The lipoxygenase (LOX) inhibition assay measures the enzyme’s ability to convert sodium linoleate to 13-hydroperoxylinoleic acid. The inhibition of the enzyme by the investigated compounds was determined by measuring the absorbance at 234 nm for each prepared sample. Specifically, the test compound, Tris buffer, an enzyme solution (5 × 10^3 units/mL in saline), and sodium linoleate (3 mM in Tris buffer, pH 9), were added to a UV cuvette, and the absorbance was recorded. […] All measurements were performed in triplicate.

Structures are written as SMILES. Converted amounts (≈) assume the structure as drawn.

These results are taken from paper PMC12693701, “Glucosinolate-Derived Metabolites from Barbarea vulgaris (Brassicaceae): Evaluation of Antimicrobial, Antioxidant, and Anti-Inflammatory Potentials” (Molecules, 2025).

In general, MIC refers to the lowest concentration that inhibits growth of the organism. What is called inhibition is the percentage by which the read-out fell short of the control. Broadly, the IC50 is the midpoint of a concentration-inhibition curve. Higher therefore signals lower potency. Consider `S=C1NCC(c2ccccc2)O1` (racemic) [Compound 4, rac-5-Phenyl-1,3-oxazolidine-2-thione], for which the MMC (in the experiment with B. subtilis ATCC 6633; in the experiment with B. cereus; in experiment [1]; in the experiment on E. coli ATCC 25922; with E. coli; in the experiment on P. mirabilis) was 5 mg/mL each time. The MIC was found to be 2500 µg/mL (≈ 13.9 mM) in the experiment with B. subtilis ATCC 6633; 5000 µg/mL (≈ 27.9 mM) with B. cereus; 1250 µg/mL (≈ 6.97 mM) in experiment [1]; 2500 µg/mL (≈ 13.9 mM) in the experiment on E. coli ATCC 25922; 2500 µg/mL (≈ 13.9 mM) with E. coli; 2500 µg/mL (≈ 13.9 mM) in the experiment on P. mirabilis. In experiment [2], the inhibition at 100 µM worked out at 90.5 ± 0.1%. Besides, the IC50 in experiment [2] amounted to 61.6 ± 0.6 µM.
Turning to `CSC(=S)NCCc1ccccc1` [Compound 1, Methyl phenethylcarbamodithioate], the MMC is on record as greater than 5 mg/mL with B. subtilis ATCC 6633; 5 mg/mL in the experiment with B. cereus; 2.5 mg/mL in experiment [1]; 1.25 mg/mL with E. coli ATCC 25922; 5 mg/mL in the experiment on E. coli; 5 mg/mL with P. mirabilis. Besides, the minimal inhibitory concentration (MIC) came out at 2500 µg/mL (≈ 11.8 mM) in the experiment with B. subtilis ATCC 6633; 5000 µg/mL (≈ 23.7 mM) with B. cereus; 1250 µg/mL (≈ 5.91 mM) in experiment [1]; 1250 µg/mL (≈ 5.91 mM) in the experiment on E. coli ATCC 25922; 2500 µg/mL (≈ 11.8 mM) with E. coli; 5000 µg/mL (≈ 23.7 mM) in the experiment on P. mirabilis. Further, the inhibition at 100 µM in experiment [2] is 47.5 ± 1.5%. This compound also displayed an IC50 in experiment [2] of 125.5 ± 0.4 µM.
As for `CSC(=S)NCCc1ccc(O)cc1` [Compound 2, methyl-4-hydroxyphenylethyl dithiocarbamate], the MMC worked out at 1.25 mg/mL in the experiment with B. subtilis ATCC 6633; 0.625 mg/mL with B. cereus; 0.625 mg/mL in experiment [1]; 0.312 mg/mL with E. coli ATCC 25922; 0.312 mg/mL in the experiment on E. coli; 0.312 mg/mL in the experiment with P. mirabilis. For the same compound, the MIC in the experiment on B. subtilis ATCC 6633 is 78 µg/mL (≈ 0.343 mM); in the experiment on B. cereus it was 156 µg/mL (≈ 0.686 mM); in experiment [1], 78 µg/mL (≈ 0.343 mM); with E. coli ATCC 25922 it was 312 µg/mL (≈ 1.37 mM); in the experiment with E. coli, 312 µg/mL (≈ 1.37 mM); in the experiment on P. mirabilis, 156 µg/mL (≈ 0.686 mM). In experiment [2], the inhibition at 100 µM turned out to be 55.5 ± 0.1%. Besides, in experiment [2], the IC50 turned out to be 97.4 ± 1.3 µM.
For the compound `O=C(O)C1CSC(=S)N1` (stereo not shown) [Compound 3, 2-Thioxothiazolidine-4-carboxylic Acid], the MMC in the experiment on B. subtilis ATCC 6633 amounted to 5 mg/mL; in the experiment on B. cereus it was 2.5 mg/mL; in experiment [1], 2.5 mg/mL; in the experiment with E. coli ATCC 25922, 1.25 mg/mL; with E. coli, 5 mg/mL; in the experiment with P. mirabilis, 2.5 mg/mL. Besides, the minimum inhibitory concentration (MIC) in the experiment on B. subtilis ATCC 6633 is 2500 µg/mL (≈ 15.3 mM); in the experiment with B. cereus, 2500 µg/mL (≈ 15.3 mM); in experiment [1] it was 625 µg/mL (≈ 3.83 mM); in the experiment on E. coli ATCC 25922, 625 µg/mL (≈ 3.83 mM); with E. coli, 1250 µg/mL (≈ 7.66 mM); in the experiment with P. mirabilis it was 2500 µg/mL (≈ 15.3 mM). Moreover, the inhibition at 100 µM in experiment [2] came out at 23.8 ± 0.8%.
Take `S=C1NC[C@H](c2ccccc2)O1` [Compound 5, (S)-5-phenyl-1,3-oxazolidine-2-thione]: the MMC is greater than 5 mg/mL with B. subtilis ATCC 6633; greater than 5 mg/mL with B. cereus; 5 mg/mL in experiment [1]; 5 mg/mL in the experiment with E. coli ATCC 25922; 5 mg/mL in the experiment with E. coli; 5 mg/mL in the experiment on P. mirabilis. Moreover, the MIC with B. subtilis ATCC 6633 is greater than 5000 µg/mL; in the experiment with B. cereus, greater than 5000 µg/mL; in experiment [1], 1250 µg/mL (≈ 6.97 mM); in the experiment on E. coli ATCC 25922, 5000 µg/mL (≈ 27.9 mM); with E. coli, 5000 µg/mL (≈ 27.9 mM); in the experiment with P. mirabilis it was 5000 µg/mL (≈ 27.9 mM). In addition, the inhibition at 100 µM in experiment [2] was 40 ± 0.5%. In experiment [2], this compound gave an IC50 of 123 ± 1.5 µM.
Regarding `O=C1NCC(c2ccccc2)S1` (stereo not shown) [Compound 6, 5-phenyl-1,3-thiazolidin-2-one], the MMC (in the experiment on B. subtilis ATCC 6633; in the experiment with B. cereus; in experiment [1]; with E. coli ATCC 25922; in the experiment on E. coli; in the experiment with P. mirabilis) was greater than 5 mg/mL each time. For the same compound, the MIC (in the experiment with B. subtilis ATCC 6633; in the experiment on B. cereus; in experiment [1]; with E. coli ATCC 25922; in the experiment with E. coli; with P. mirabilis) was greater than 5000 µg/mL in each case. For the same compound, the inhibition at 100 µM in experiment [2] was determined as 34.6 ± 0.4%.
